Test results published in patent US20030203908A1, “Dihydrofolate reductase inhibitors” (priority 2000, published 2003).
In brackets after ≈: the same amount, converted by molar mass. Like-named read-outs stand apart in the source and are kept apart here.

Key:
[1] = target: T1, wild-type (wt) DHFR from Plasmodium falciparum (Plasmodium falciparum, UniProt P13922, N108S/R59C); test: Inhibition of wild-type pfDHFR (spectrophotometric, Ki); format: biochemical;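 note: Affinity-purified enzyme, initial reaction rates measured across a range of inhibitor concentrations, Ki obtained by nonlinear least-squares fitting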
T1 construct: The Dihydrofolate Reductase Domain of Plasmodium falciparum Thymidylate Synthase-Dihydrofolate Reductase; made in house
Description: (§2) For determination of the Ki values of a number of synthesized analogues, the assay reactions were initiated with affinity-purified enzyme (^˜0.005-0.01 U ml^−1), and the initial velocities in the presence of varying concentrations of inhibitors were analysed by non-linear least square fit using Kaleidagraph™ software.

[2] = target: T2, A16V.S108T mutant (mut) of DHFR from Plasmodium falciparum (Plasmodium falciparum, UniProt A7UD81, A16V/S108T); test: biochemical
T2 construct: The Dihydrofolate Reductase Domain of Plasmodium falciparum Thymidylate Synthase-Dihydrofolate Reductase; made in house
Description: as §2

[3] = test system: A16V.S108T mutant (mut) of DHFR from Plasmodium falciparum; test: biochemical; details: resistance factor
Description: as §2

[4] = test system: wild-type (TM4/8.2) strain of P. falciparum; test: microbe, parasite or virus in culture; format: cell-based, Plasmodium falciparum
Description: (§1) Mol. Biochem. Parasitol. […] Science, 1976, 193, 673-675]. In vitro antimalarial activity was determined by using [^3H]-hypoxanthine incorporation method [Desjardins, R. E.; Canfield, C. J.; Haynes, J. D.; Chulay, J. D. Quantitative assessment of antimalarial activity in vitro by a semiautomated microdilution technique. Antimicrob Agents Chemother. 1979, 16, 710-718]. The drugs were initially dissolved in DMSO and diluted with the culture media. Aliquots (25 μl) of drug solution of different concentrations was placed in 96-well plate together with 200 μl of 1.5% cell suspension of parasitized erythrocytes containing 1-2% parasitemia. Final concentration of DMSO was 0.1% where there was no effect on the parasite growth. The mixtures were incubated in a 3% CO2 incubator at 37° C. After 24 h of incubation, 25 μl (0.25 μCi) of [^3H]-hypoxanthine were added to each well. The mixtures were further incubated under the same condition for 18-24 h. DNA of parasites was harvested onto glass filter paper (Unifilter, Packard, USA). The filters were dried and liquid scintillation fluid was added for radioactivity measurement in a 6-probe liquid scintillation-counter (Packard, USA).

[5] = test system: resistant T9/94 strain of P. falciparum (A16V.S108T pfDHFR); test: In vitro antimalarial activity, [3H]-hypoxanthine incorporation, T9/94; format: cell-based, Plasmodium falciparum; details: resistant strain T9/94
Description: as §1

[6] = target: T3, DHFR-TS from Trypanosoma cruzi (Trypanosoma cruzi, UniProt Q27793); test: Inhibition of T. cruzi DHFR-TS (I50-derived Ki);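 for all read-outs here: enzymes were recombinant T. cruzi DHFR-TS and human DHFR, both expressed in E. coli and purified on a methotrexate affinity column, with dihydrofolate and NADPH as substrates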; format: biochemical; details: for Selectivity: human Ki / T. cruzi Ki
T3 construct: pET 11c with the insertion of the complete ORF of the gene tc-dhfrts; made in house; host or cells: E. coli BL21 (DE3)
Description: DHFR activity was measured spectrophotometrically by monitoring the decrease in absorbance at 340 mm.
(§3) Inhibition of dihydrofolate reductases by 1,2-dihydro-1,3,5 triazines was analysed with T. cruzi and human DHFR.
(§4) DHFR assays contained 30 mM dihydrofolate, 0.1 mM NADPH, 50 mM TES buffer pH 7, 75 mM 2-mercaptoethanol and specified amounts of inhibitors. The reaction was initiated by addition of 2.8 or 2.3 units of T. cruzi and human, respectively, and monitored at 340 nm.
Selective inhibition of dihydrofolate reductase by 1,2-dihydro-1,3,5-triazines was analysed with T. cruzi and human DHFR. DHFR assays contained 30 μM dihydrofolate, 0.1 mM NADPH, 50 mM TES buffer pH 7, 75 mM β-mercaptoethanol and specified amounts of inhibitors. The reaction was initiated by addition of 2.8 or 2.3 units of T. cruzi and human enzyme, respectively, and monitored at 340 nm.
KiI 50=[I]0.5/((1+[S])/Km)

[7] = target: T4, human DHFR (Homo sapiens, UniProt P00374); test: Inhibition of human DHFR (I50-derived Ki); format: biochemical; details: for inhibitory activity against human DHFR: compared with methotrexate;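 for all read-outs here: recombinant human DHFR expressed in E. coli and purified by methotrexate affinity chromatography, enzyme activity followed spectrophotometrically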
T4 construct: made in house; host or cells: E. coli M15
T4 sequence (P00374 1-187): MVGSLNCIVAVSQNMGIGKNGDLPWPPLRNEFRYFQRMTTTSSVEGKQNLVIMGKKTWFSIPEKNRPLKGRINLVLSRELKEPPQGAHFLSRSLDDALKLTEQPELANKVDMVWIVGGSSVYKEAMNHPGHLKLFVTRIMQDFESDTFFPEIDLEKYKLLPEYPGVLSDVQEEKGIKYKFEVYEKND
Description: (§5) Folic acid and NADPH, were purchased from Sigma. Dihydrofolate was prepared from folic acid dithionate reduction. Methotrexate (MTX) was from Lederle Laboratories. MTX sepharose CL-6B was prepared according to the protocol described by Dann. et al. IPTG came from Boehringer Manheim. The expression system used for recombinant human DHFR production, which includes the plasmid PB-E1/RB SII, SphI-HDHFR expressed in E. coli M15, was supplied by Santi, D. V (Department of Biochemistry and Biophysics and Department of Pharmaceutical Chemistry, University of California). Recombinant T. Cruzi DHFR-TS was produced using the system pET 11c with the insertion of the complete ORF of the gene tc-dhfrts. The resulting plasmid was called pET DT.
(§6) Human and T.cruzi DHFR were produced using inducible expression systems. For human DHFR, fresh overnight cultures of E. coli M15, transformed with the plasmid, pB-E1/RB SII, SphI-HDHFR, were grown in LB and 0.1 mg/ml ampicillin medium at 28° C. For T.cruzi DHFR-TS, cultures of E. coli, BL21 (DE3) transformed with the plasmid pETDT system were grown at 37° C. The same purification protocol was used for both systems. When OD600 was at 0.8, cells pellets were collected by centrifugation, suspended in 50 ml of LB medium, containing 0.1 mg/ml of ampicillin. 10 ml of this preinocule was added to 2 litres of LB medium. Cultures were shaken at 28° C. or 37° C. (for human and T. cruzi DHFR respectively) and induction with IPTG ImM was performed when OD600 reached 0.8. After IPTG induction, cells were grown overnight in a shaker at 28° C. or 5 hours at 28° C. or 37° C. (for human and T. cruzi DHFR respectively) and then harvested by centrifugation.
(§7) Cell pellets were suspended in sonication buffer (2× TES DHFR:TES 100 mM, 2-mercaptoethanol 150 mM, EDTA 2 mM pH=7) containing protease inhibitors.
(§8) Crude extract was circulated through the MTX-Sepharose column at 4° C. at a flow rate of 0.2 ml/min until the protein was bound to the resin. The column was washed with an excess of buffer B (KH2PO410 mM pH 7, KC1 1M). Protein was eluted at 0.2 min/ml with an elution buffer (100 mM TES, 10 mM DTT, 2 mM EDTA, DHF 8.5 mM), the elution profile was collected in 1 ml fractions using a Pharmacia LKB Frac 200 collector. Finally, the protein was desalted using molecular size exclusion chromatography in a Pharmacia G-25 column. Fractions containing DHFR activity were pooled and concentrated by ultrafiltration using centripreps Amicon.
(§9) The purity of the protein preparation was assessed by detection of a single band of the correct molecular weight stained with coomasie blue following a 12% SDS-PAGE. Protein concentration was determined by the method of Bradford using a BSA as a standard. DHFR activity was measured spectrophotometrically by monitoring the decrease in absorbance at 340 mm. […] One unit of enzyme, is defined as the amount of enzyme which produces 1 nmol of product per min using ε of 12300M^−1 at 340 nm.
as §3, §4
(§10) Selective inhibition of dihydrofolate reductase by 1,2-dihydro-1,3,5-triazines was analysed with T. cruzi and human DHFR. DHFR assays contained 30 μM dihydrofolate, 0.1 mM NADPH, 50 mM TES buffer pH 7, 75 mM β-mercaptoethanol and specified amounts of inhibitors. The reaction was initiated by addition of 2.8 or 2.3 units of T. cruzi and human enzyme, respectively, and monitored at 340 nm. […] KiI 50=[I]0.5/((1+[S])/Km)

[8] = target: human DHFR; test: Inhibition of human DHFR (I50-derived Ki); format: biochemical;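 note: recombinant human DHFR expressed in E. coli and purified by methotrexate affinity chromatography, enzyme activity followed spectrophotometrically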
Description: as §5, §6, §7, §8, §9, §3, §4, §10

[9] = test system: Plasmodium berghei; test: In vivo activity against Plasmodium berghei in mice; details: P. berghei
Description: These analogues were tested in vivo in a mice against Plasmodium berghei.

[10] = test system: P. falciparum 3D7 (wild-type strain); test: In vitro inhibition of P. falciparum 3D7; format: cell-based, Plasmodium falciparum; details: 3D7 strain; for IC50: Plasmodium falciparum, read-out: Pf-3D7 ED50
[11] = test system: P. falciparum FCR3 (resistant strain containing the A16V.S108T DHFR mutant); test: In vitro inhibition of P. falciparum FCR3; format: cell-based, Plasmodium falciparum; details: for IC50: Plasmodium falciparum, read-out: Pf-FCR3 ED50
[12] = A16V.S108T mutant pfDHFR, read-out: Ki(mut)
[13] = Plasmodium falciparum, wild-type strain TM4/8.2
[14] = T. cruzi DHFR-TS, read-out: T. cruzi Ki (I50)

T3 sequence (Q27793 whole entry): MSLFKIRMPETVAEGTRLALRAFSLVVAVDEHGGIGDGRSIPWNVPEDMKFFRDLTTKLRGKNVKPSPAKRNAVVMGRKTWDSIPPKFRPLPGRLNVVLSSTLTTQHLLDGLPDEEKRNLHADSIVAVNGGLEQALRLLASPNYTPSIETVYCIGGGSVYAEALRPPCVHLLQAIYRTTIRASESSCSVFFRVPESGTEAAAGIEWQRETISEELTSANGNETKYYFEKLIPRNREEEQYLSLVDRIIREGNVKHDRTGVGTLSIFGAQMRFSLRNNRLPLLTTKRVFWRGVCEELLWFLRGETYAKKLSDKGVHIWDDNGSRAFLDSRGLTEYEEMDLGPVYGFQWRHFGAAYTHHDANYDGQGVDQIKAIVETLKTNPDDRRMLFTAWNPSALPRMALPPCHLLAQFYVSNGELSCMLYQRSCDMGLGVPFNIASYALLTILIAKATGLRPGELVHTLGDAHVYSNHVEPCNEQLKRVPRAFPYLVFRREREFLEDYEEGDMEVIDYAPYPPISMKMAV
T2 sequence (A7UD81 1-231 A16V/S108T): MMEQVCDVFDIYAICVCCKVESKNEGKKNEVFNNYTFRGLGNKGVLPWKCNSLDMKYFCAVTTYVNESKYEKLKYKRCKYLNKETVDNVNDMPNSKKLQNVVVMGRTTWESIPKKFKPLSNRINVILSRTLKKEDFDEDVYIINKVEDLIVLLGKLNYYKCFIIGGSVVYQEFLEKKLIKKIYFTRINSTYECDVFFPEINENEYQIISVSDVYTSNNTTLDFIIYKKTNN
T1 sequence (P13922 10-228 R59C/N108S): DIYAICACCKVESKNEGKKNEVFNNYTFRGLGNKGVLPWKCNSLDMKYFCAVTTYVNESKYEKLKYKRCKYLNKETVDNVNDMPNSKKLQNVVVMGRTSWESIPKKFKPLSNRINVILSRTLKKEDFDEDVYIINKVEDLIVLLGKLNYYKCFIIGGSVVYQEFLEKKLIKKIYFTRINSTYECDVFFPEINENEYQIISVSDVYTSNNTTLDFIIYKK

SMILES	Ki ([1]; read-out: Ki(wt)) [nM]	Ki [2, 12] [nM]	Ki(mut)/Ki(wt) [3]	IC50 ([4]; wild-type strain TM4/8.2) [nM]	IC50 [5] [nM]	Ki ([1]; Ki(wt) nM) [nM]	Ki [2] [nM]	IC50 [4, 13] [nM]	also measured
CCCCOc1ccc(C2N=C(N)N=C(N)N2OCCCOc2cc(Cl)c(Cl)cc2Cl)cc1 (centres unmarked) [1-[3′-(2,4,5-trichlorophenoxy)-n-propyloxy]-2-p-n-butyloxyphenyl-4,6-diamino-1,2-dihydro-1,3,5-triazine]	3.2 ± 0.4	8.2 ± 0.8	2.6	1490	41				
CCCOc1ccc(C2N=C(N)N=C(N)N2OCCCOc2cc(Cl)c(Cl)cc2Cl)cc1 (centres unmarked) [1-[3′-(2,4,5-trichlorophenoxy)-n-propyloxy]-2-p-n-propyloxyphenyl-4,6-diamino-1,2-dihydro-1,3,5-triazine]	1.7 ± 0.3	6.1 ± 0.7	3.6	948	29				
NC1=NC(c2cccc(Oc3ccccc3)c2)N(c2ccc(OCc3ccccc3)cc2)C(N)=N1 (centres unmarked) [1-p-Benzyloxyphenyl-2-m-phenoxyphenyl-4,6-diamino-1,2-dihydro-1,3,5-triazine]			5			0.9 ± 0.2	4.5 ± 0.6	255	Ki [6]: 3 nM; Selectivity [6]: 3.3; Ki ([7]; Human Ki (I50)(nM), human DHFR): 10 nM; inhibitory activity against human DHFR [7]: comparable to that of methotrexate; Ki (human)/Ki (P. falc. mut) [8]: 2.2; Ki (human)/Ki (P. falc. wt) [8]: 11; Ki (human)/Ki (T. cruzi) [8]: 3.33; melting point: 208 to 210 °C
NC1=NC(c2ccc(Cl)cc2)N(c2ccc(Cl)cc2)C(N)=N1 (centres unmarked) [(Ia) R2=p-chlorophenyl]	7.5 ± 0.9	105 ± 17	14.0	499	386				Ki [6, 14]: 270 nM; Selectivity [6]: 11; Ki ([7]; human DHFR, read-out: Human Ki (I50)): 2960 nM; Ki (human)/Ki (P. falc. mut) [8]: 28; Ki (human)/Ki (P. falc. wt) [8]: 395; Ki (human)/Ki (T. cruzi) [8]: 11.0
NC1=NC(c2cccc(Oc3ccc(Cl)c(Cl)c3)c2)N(c2cccc(Cl)c2)C(N)=N1 (centres unmarked) [(Ib) R2=3-(3,4-dichlorophenoxy)phenyl]			4.1			2.2 ± 0.2	9.1 ± 0.7	3900	Mean % infected RBC ([9]; 25 mg/kg daily x4): 13.0%
NC1=NC(c2cccc(Oc3ccc(Cl)cc3)c2)N(c2cccc(Cl)c2)C(N)=N1 (centres unmarked) [(Ib) R2=3-(4-chlorophenoxy)phenyl]			2.7			1.3	3.5 ± 0.5	3950	IC50 [10]: 0.36 µg/mL (≈ 0.844 µM); IC50 ([11]; in vitro, FCR3 strain): 0.078 µg/mL (≈ 0.183 µM); Mean % infected RBC ([9]; 25 mg/kg daily x4): 5.0%
COc1ccc(Oc2cccc(C3N=C(N)N=C(N)N3c3cccc(Cl)c3)c2)cc1 (centres unmarked) [(Ib) R2=3-(4-methoxyphenoxy)phenyl]			1.1			2.3 ± 0.1	2.5 ± 0.3	4120	Mean % infected RBC ([9]; 25 mg/kg daily x4): 1.94%
NC1=NC(c2cccc(Oc3ccccc3)c2)N(c2cccc(Cl)c2)C(N)=N1 (centres unmarked) [(Ib) R2=3-phenoxyphenyl, 1-m-chlorophenyl-2-m-phenoxyphenyl-4,6-diamino-1,2-dihydro-1,3,5-triazine]			1.9			1 ± 0.2	1.9	2300	Ki [6]: 4 nM; Selectivity [6]: 0.5; Ki ([7]; Human Ki (I50)(nM), human DHFR): 2 nM; inhibitory activity against human DHFR [7]: comparable to that of methotrexate; Ki (human)/Ki (P. falc. mut) [8]: 0.8; Ki (human)/Ki (P. falc. wt) [8]: 1.8; Ki (human)/Ki (T. cruzi) [8]: 0.5; IC50 [10]: 0.22 µg/mL (≈ 0.561 µM); ED50 against the resistant Pf FCR-3 strain in vitro [11]: 0.8 nM; IC50 ([11]; in vitro, FCR3 strain): 0.0008 µg/mL (≈ 0.00204 µM); Mean % infected RBC ([9]; 25 mg/kg daily x4): 7.05%
NC1=NC(c2ccc(Oc3ccccc3)cc2)N(c2cccc(Cl)c2)C(N)=N1 (centres unmarked) [(Ib) R2=4-phenoxyphenyl]			3.9			0.7	2.7 ± 0.4	647	IC50 ([11]; in vitro, FCR3 strain): 0.004 µg/mL (≈ 0.0102 µM); Mean % infected RBC ([9]; 25 mg/kg, schedule b): 11.42%
NC1=NC(c2cccc(OCc3ccccc3)c2)N(c2cccc(COc3cc(Cl)c(Cl)cc3Cl)c2)C(N)=N1 (centres unmarked) [(Id1) R2=3-benzyloxyphenyl]	10.3 ± 2.6	11.7 ± 3.2	1.1	14000	1730				Ki [6, 14]: 30 nM; Selectivity [6]: 0.73; Ki ([7]; read-out: Human Ki (I50)): 22 nM; Ki (human)/Ki (P. falc. mut) [8]: 1.9; Ki (human)/Ki (P. falc. wt) [8]: 2.1; Ki (human)/Ki (T. cruzi) [8]: 0.7
NC1=NC(c2cccc(Oc3ccc(Cl)cc3)c2)N(c2cccc(/C=C/c3ccc(Cl)cc3Cl)c2)C(N)=N1 (centres unmarked) [(Id2) R2=3-(4-chlorophenoxy)phenyl]	219 ± 11	210 ± 18	0.9	> 10000	> 10000				
NC1=NC(c2cccc(Oc3ccccc3)c2)N(c2cccc(/C=C/c3ccc(Cl)cc3Cl)c2)C(N)=N1 (centres unmarked) [(Id2) R2=3-phenoxyphenyl]	6.5 ± 0.5	10.8 ± 1.2	1.7	4110	4320				
CCCOc1cccc(C2N=C(N)N=C(N)N2c2cccc(/C=C/c3ccc(Cl)cc3Cl)c2)c1 (centres unmarked) [(Id2) R2=3-propyloxyphenyl]	1.3 ± 0.3	19.2 ± 2.7	14.8	25400	5410				
CCN(CC)CCCC(C)Nc1ccnc2cc(Cl)ccc12 (centres unmarked) [Chloroquine, reference compound]									Mean % infected RBC ([9]; 10 mg/kg daily x4): 3.58%
NC1=NC(c2cccc(OCc3ccccc3)c2)N(c2ccc(OCc3ccccc3)cc2)C(N)=N1 (centres unmarked) [R2=3-BnOC6H4, X=BnO, Y=H, 1-p-benzyloxyphenyl-2-m-benzyloxyphenyl-4,6-diamino-1,2-dihydro-1,3,5-triazine]	1.3 ± 0.2	5.7 ± 0.6	4.4		255				IC50 [4]: 3450 nM; Ki [6, 14]: 40 nM; Selectivity [6]: 8.0; Ki ([7]; read-out: Human Ki (I50)): 319 nM; Ki (human)/Ki (P. falc. mut) [8]: 56; Ki (human)/Ki (P. falc. wt) [8]: 245; Ki (human)/Ki (T. cruzi) [8]: 8.0
NC1=NC(c2ccc(Oc3ccc(C(F)(F)F)cc3)cc2)N(c2cccc(Cl)c2)C(N)=N1 (centres unmarked) [R2=4-(4-CF3PhO)C6H4, X=H, Y=Cl]									Mean % infected RBC ([9]; 24 mg/kg daily x4): 4.4%
CCCCOc1ccc(C2N=C(N)N=C(N)N2c2cccc(Cl)c2)cc1 (centres unmarked) [R2=4-nBuOC6H4, X=H, Y=Cl]									Pf-3D7 ED50 [10]: 0.3 µg/mL; Pf-FCR3 ED50 ([11]; in vitro, FCR3 strain): 0.0038 µg/mL; Mean % infected RBC ([9]; 25 mg/kg daily x4): 16.46%
